Data from US20250268931A1, “TRANSCRIPTIONAL INHIBITOR FOR IMMUNE-RELATED GENE” (The University of Tokyo, priority 2022, published 2025).

Columns and labels:
[1] = test system: Ifnb1, Il6, and Tnf genes; experiment: In vivo relative mRNA expression in peritoneal macrophages after Poly(I:C) (qRT-PCR); design: species or system mice; details: 400 μg/mouse i.p., Poly(I:C) 250 μg/mouse i.p. 3 h later, peritoneal macrophages 2 h later
Method: IRF-PIPA 3 was administered into the abdominal cavity of wild-type mice in an amount of 400 μg/mouse, and 3 hours after the administration, 250 μg/mouse Poly(I:C) was also administered into the abdominal cavity. Two hours after the administration of Poly(I:C), peritoneal macrophages were recovered, and the relative expression levels of Ifnb1, Il6, and Tnf genes were then analyzed by qRT-PCR.

[2] = test system: Ifnb1, Il6, and Tnf genes; experiment: Relative mRNA expression in Poly(I:C)-stimulated peritoneal macrophages (qRT-PCR); type: cell-based, mice; details: 6 μM 24 h, Poly(I:C) 1 μg/mL 2, 4 or 6 h, qRT-PCR relative to GAPDH
Method: Using PBS, peritoneal macrophages were harvested from mice, and were then seeded on a 96-well plate at a cell density of 2.5×10^5 cells/well, followed by culturing for 2 hours. Thereafter, the cultured cells were washed twice with PBS. IRF-PIPA 3 was suspended in a 10% FBS-RPMI or MEM medium to a final concentration of 6 μM, and the obtained suspension was then added to the cells. After completion of the culture for 24 hours, Poly(I:C) was added to the cultured cells to a final concentration of 1 μg/mL. The obtained mixture was cultured for 2, 4, or 6 hours, and the cells were recovered. Using TRIsure, the recovered cells were suspended at 100 µL/well and was then recovered. Thereafter, the relative expression levels of Ifnb1, Il6, and Tnf genes were measured by qRT-PCR.
Mouse peritoneal macrophages were harvested from 6-week-old CL57B/6 mice (CLEA Japan, Inc.) by peritoneal lavage using 7 mL of PBS (Nacalai Tesque), and the cells adhered to the culture plate by culture for 2 hours were used in experiments. The culture was carried out using an RPMI or D-MEM medium (Nacalai Tesque) containing 10% FBS (SIGMA-ALDRICH) and Penicillin-Streptomycin mixed solution (Nacalai Tesque). The CL57B/6 mice were bred in an SPF environment.
2.5×10^5 Peritoneal macrophages were seeded on a plate, and were then treated with IRF-PIPA 3 for 24 hours. […]

[3] = molecular target: DNA sequence (GAAAGTG C GAAAGTG C GAAAGTG C: SEQ ID No: 28); experiment: Binding to target DNA sequence, Octet K2; details: Octet K2, 10 to 320 nM, binding and dissociation 60 seconds each, biotin-labeled target sequence
Method: In order to verify the cytotoxic activity of IRF-PIPA 3, dsDNA concentration (left view in the figure) and LDH concentration (right view in the figure) in the culture supernatant were measured. The same experiment as that in FIG. 2 was carried out, and the culture supernatant was recovered. A lysate obtained by mixing 2.5×10^5 peritoneal macrophages with 90 μL of 10% FBS-RPMI or D-MEM medium and 10 μL of Lysis Buffer, and then disrupting the cells, was used as a positive control. […] Using Octet K2, the binding of each concentration of IRF-PIPA 3 shown in the figure and a target DNA sequence was analyzed. After mixing a PIPA solution with target DNA, the binding of the two substances was measured for 60 seconds. […] From changes in the binding and dissociation at each concentration over time, a Kd value was calculated as a dissociation constant indicating a binding force. The analysis was performed using Octet K2 (ForteBio) according to standard protocols. A streptavidin-conjugated sensor (ForteBio) was used, and a biotin-labeled target sequence (FASMAC) was allowed to bind to the sensor. Further, according to standard protocols, the binding of 10 to 320 nM IRF-PIPA 3 and the target sequence, and dissociation thereof were analyzed for 60 seconds each.

IFN-β, IL-6 and TNF-α = experiment: Cytokine protein expression in peritoneal macrophages treated with LNP-mRNA encoding ovalbumin (ELISA); type: cell-based, mice; details: 6 μM, LNP-mRNA (OVA) 0.5 μg/mL 20 to 24 hours
Method: Peritoneal macrophages were harvested from wild-type mice, and were then seeded on a 96-well plate at a cell density of 2.5×10^5 cells/well, followed by culturing for 2 hours. Thereafter, the cultured cells were washed twice with PBS. Subsequently, IRF-PIPA 3 was suspended in 10% FBS-RPMI or D-MEM to a final concentration of 6 μM, and was then added to the wells. After completion of the culture for 16 hours, an mRNA vaccine was added to the cultured cells to a final concentration of 0.5 μg/mL, and the obtained mixture was then cultured for 20 to 24 hours. Thereafter, the culture supernatant was recovered, and each protein concentration of IFN-β, IL-6 or TNF-α was then measured by ELISA.
2×10^4 Raw264.7 cells were seeded on a plate, and were then treated with IRF-PIPA 1, IRF-PIPA 2, IRF-PIPA 3 or IRF-PIPA 4 for 24 hours. Thereafter, the cells were stimulated with LPS (Lipopolysaccharide, SIGMA-ALDRICH) for 16 hours, and the culture supernatant was then recovered. The concentration of cytokine in the culture supernatant was measured using ELISA kit (R&D SYSTEMS) according to the standard protocols. The culture supernatant was diluted with 1% BSA-PBS, as necessary, and was then analyzed. 2.5×10^5 Mouse peritoneal macrophages were seeded on a plate, and were then treated with IRF-PIPA 3 for 16 or 24 hours. […] The concentration of cytokine in the culture supernatant was measured using ELISA kit (R&D SYSTEMS) according to the same standard protocols. On the other hand, the concentration of cytokine in mouse plasma was measured by administering 400 μg/mouse IRF-PIPA 3 into the abdominal cavity of wild-type mice, then administering 250 μg of Poly(I:C) into the same abdominal cavity 24 hours after the IRF-PIPA 3 administration, then collecting blood further 2 hours after the Poly(I:C) administration, and then measuring the cytokine concentration in the plasma using ELISA kit (R&D SYSTEMS) according to standard protocols.

In the case of `CC(=O)Nc1cn(C)c(C(=O)Nc2cc(C(=O)NCCC(=O)Nc3cc(C(=O)Nc4cn(C)c(C(=O)NCCC(=O)Nc5cn(C)c(C(=O)NCCCC(=O)Nc6cc(C(=O)Nc7cc(C(=O)Nc8cc(C(=O)NCCC(=O)Nc9cc(C(=O)Nc%10cc(C(=O)NCCC(=O)NCCCN(C)C)n(C)c%10)n(C)c9)n(C)c8)n(C)c7)n(C)c6)n5)n4)n(C)c3)n(C)c2)n1` [IRF-PIPA 3], the “expression level of Ifnb1 mRNA in vivo” value [1] is reported as “significantly suppressed”, the “expression level of Il6 mRNA in vivo” value [1] is reported as “significantly suppressed” and the “expression level of Tnf mRNA in vivo” value [1] is reported as “significantly suppressed”. For the same molecule, the “relative expression level of Ifnb1 mRNA” value [2] was “strongly suppressed induction of the expression of Ifnb1 mRNA in a concentration-dependent manner”, the Kd [3] was 22.7 nM and the “expression of IFN-β protein after LNP-mRNA” value (IFN-β, IL-6 and TNF-α) was “strongly suppressed”. For the same molecule, the “expression of IL-6 protein after LNP-mRNA” value (IFN-β, IL-6 and TNF-α) was “strongly suppressed” and the “expression of TNF-α protein after LNP-mRNA” value (IFN-β, IL-6 and TNF-α) was “strongly suppressed”.
